According to PubChem BioAssay AID1918946 (Molecular Pharmacology Branch, DTP, NCI, 2023):
pIC50: −log10 of the molar value.

System: 885512-296-R-J2-PDC complex spheroid viability
Assay: Anticancer human tumor 885512-296-R-J2-PDC patient-derived breast carcinoma cell line growth inhibition
Settings: for pIC50: curve of first compound; for viability, T/C: stronger effect = lower value
Summary of the method: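 Multicellular complex spheroids of tumor cells with human endothelial cells (HUVEC) and mesenchymal stem cells; the LSD1 inhibitor iadademstat was combined with standard-of-care or investigational agents. Top concentration at or near clinical Cmax, half-log dilutions; final DMSO ≤0.25%.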

[1] = second compound 0.1 µM, first compound 0.0316 µM
[2] = second compound 0.1 µM, first compound 0.1 µM
[3] = second compound 0.1 µM, first compound 0.316 µM
[4] = second compound 0.1 µM, first compound 1 µM
[5] = second compound 0.1 µM, first compound 3.16 µM
[6] = second compound 0.1 µM, first compound 10 µM
[7] = second compound 0.316 µM, first compound 0.0316 µM
[8] = second compound 0.316 µM, first compound 0.1 µM
[9] = second compound 0.316 µM, first compound 0.316 µM
[10] = second compound 0.316 µM, first compound 1 µM
[11] = second compound 0.316 µM, first compound 3.16 µM
[12] = second compound 0.316 µM, first compound 10 µM
[13] = second compound 1 µM, first compound 0.0316 µM
[14] = second compound 1 µM, first compound 0.1 µM
[15] = second compound 1 µM, first compound 0.316 µM
[16] = second compound 1 µM, first compound 1 µM
[17] = second compound 1 µM, first compound 3.16 µM
[18] = second compound 1 µM, first compound 10 µM
[19] = second compound 3.16 µM, first compound 0.0316 µM
[20] = second compound 3.16 µM, first compound 0.1 µM
[21] = second compound 3.16 µM, first compound 0.316 µM
[22] = second compound 3.16 µM, first compound 1 µM
[23] = second compound 3.16 µM, first compound 3.16 µM
[24] = second compound 3.16 µM, first compound 10 µM
[25] = second compound 10 µM, first compound 0.0316 µM
[26] = second compound 10 µM, first compound 0.1 µM
[27] = second compound 10 µM, first compound 0.316 µM
[28] = second compound 10 µM, first compound 1 µM
[29] = second compound 10 µM, first compound 3.16 µM
[30] = second compound 10 µM, first compound 10 µM
[31] = second compound 0.1 µM, first compound 0.00316 µM
[32] = second compound 0.1 µM, first compound 0.01 µM
[33] = second compound 0.316 µM, first compound 0.00316 µM
[34] = second compound 0.316 µM, first compound 0.01 µM
[35] = second compound 1 µM, first compound 0.00316 µM
[36] = second compound 1 µM, first compound 0.01 µM
[37] = second compound 3.16 µM, first compound 0.00316 µM
[38] = second compound 3.16 µM, first compound 0.01 µM
[39] = second compound 10 µM, first compound 0.00316 µM
[40] = second compound 10 µM, first compound 0.01 µM
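Note: spheroids exposed to agents for 7 days before viability read.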

Q: Which results are given for CC(C)c1c(-c2ccccc2)nc2c(C#N)c[nH]n2c1=O + NC1CC1c1ccc(-c2cccc(O)c2)cc1?
A: pIC50 (second compound 0.1 µM): < 5.00; pIC50 (second compound 0.316 µM): < 5.00; pIC50 (second compound 1 µM): < 5.00; pIC50 (second compound 3.16 µM): < 5.00; pIC50 (second compound 10 µM): 5.17; viability, T/C [1]: 120%; viability, T/C [2]: 128%; viability, T/C [3]: 127%; viability, T/C [4]: 118%; viability, T/C [5]: 119%; viability, T/C [6]: 84.8%; viability, T/C [7]: 140%; viability, T/C [8]: 124%; viability, T/C [9]: 128%; viability, T/C [10]: 128%; viability, T/C [11]: 137%; viability, T/C [12]: 87.4%; viability, T/C [13]: 132%; viability, T/C [14]: 121%; viability, T/C [15]: 118%; viability, T/C [16]: 118%; viability, T/C [17]: 125%; viability, T/C [18]: 74.9%; viability, T/C [19]: 138%; viability, T/C [20]: 131%; viability, T/C [21]: 118%; viability, T/C [22]: 108%; viability, T/C [23]: 124%; viability, T/C [24]: 71.9%; viability, T/C [25]: 88%; viability, T/C [26]: 88.3%; viability, T/C [27]: 88.5%; viability, T/C [28]: 70.1%; viability, T/C [29]: 72.9%; viability, T/C [30]: 40.1%

Q: CC1COCCN1c1cc(-c2ccnn2C)c2ccnc(-c3ccn[nH]3)c2n1 (stereo not given) + NC1CC1c1ccc(-c2cccc(O)c2)cc1 was tested. Which pIC50 (second compound 0.1 µM) did it give?
A: > 8.50

Q: And the pIC50 (second compound 0.316 µM)?
A: > 8.50

Q: What about the pIC50 (second compound 1 µM) of the same molecule?
A: > 8.50

Q: What about the pIC50 (second compound 3.16 µM) of the same molecule?
A: > 8.50

Q: What about the pIC50 (second compound 10 µM) of the same molecule?
A: > 8.50

Q: And the viability, T/C [31]?
A: 3.29%

Q: And the viability, T/C [32]?
A: 2.63%

Q: And the viability, T/C [1]?
A: 2.05%

Q: What about the viability, T/C [2] of the same molecule?
A: 1.94%

Q: And the viability, T/C [3]?
A: 2.98%

Q: And the viability, T/C [4]?
A: 3.66%

Q: And the viability, T/C [33]?
A: 4.19%

Q: And the viability, T/C [34]?
A: 3.06%

Q: What about the viability, T/C [7] of the same molecule?
A: 2.44%

Q: And the viability, T/C [8]?
A: 2%

Q: What about the viability, T/C [9] of the same molecule?
A: 3.18%

Q: What about the viability, T/C [10] of the same molecule?
A: 4.22%

Q: What about the viability, T/C [35] of the same molecule?
A: 3.96%

Q: What about the viability, T/C [36] of the same molecule?
A: 3.23%

Q: And the viability, T/C [13]?
A: 2.3%

Q: What about the viability, T/C [14] of the same molecule?
A: 2.21%

Q: What about the viability, T/C [15] of the same molecule?
A: 3.06%

Q: And the viability, T/C [16]?
A: 4.25%

Q: What about the viability, T/C [37] of the same molecule?
A: 2.66%

Q: What about the viability, T/C [38] of the same molecule?
A: 2.58%

Q: And the viability, T/C [19]?
A: 1.89%

Q: And the viability, T/C [20]?
A: 2.1%

Q: And the viability, T/C [21]?
A: 2.93%

Q: And the viability, T/C [22]?
A: 4.29%

Q: What about the viability, T/C [39] of the same molecule?
A: 3.44%

Q: What about the viability, T/C [40] of the same molecule?
A: 2.73%

Q: And the viability, T/C [25]?
A: 1.93%

Q: What about the viability, T/C [26] of the same molecule?
A: 2.12%

Q: And the viability, T/C [27]?
A: 2.49%

Q: What about the viability, T/C [28] of the same molecule?
A: 4.01%

Q: How did the pIC50 (second compound 0.1 µM) turn out when COc1ccc([C@@H](O)c2cc(-c3ncnc4cc(N5CCOCC5)ccc34)c(F)cc2Cl)nn1 + NC1CC1c1ccc(-c2cccc(O)c2)cc1 was run?
A: 5.45

Q: And the pIC50 (second compound 0.316 µM)?
A: 5.41

Q: And the pIC50 (second compound 1 µM)?
A: 5.48

Q: And the pIC50 (second compound 3.16 µM)?
A: 5.84

Q: And the pIC50 (second compound 10 µM)?
A: 6.35

Q: What about the viability, T/C [1] of the same molecule?
A: 126%

Q: What about the viability, T/C [2] of the same molecule?
A: 127%

Q: And the viability, T/C [3]?
A: 94.4%

Q: What about the viability, T/C [4] of the same molecule?
A: 86.9%

Q: And the viability, T/C [5]?
A: 54.5%

Q: And the viability, T/C [6]?
A: 12.9%

Q: What about the viability, T/C [7] of the same molecule?
A: 111%

Q: And the viability, T/C [8]?
A: 121%

Q: And the viability, T/C [9]?
A: 103%

Q: And the viability, T/C [10]?
A: 94.7%

Q: What about the viability, T/C [11] of the same molecule?
A: 57.6%

Q: What about the viability, T/C [12] of the same molecule?
A: 11.8%

Q: And the viability, T/C [13]?
A: 98.3%

Q: And the viability, T/C [14]?
A: 109%

Q: And the viability, T/C [15]?
A: 87.9%

Q: What about the viability, T/C [16] of the same molecule?
A: 78.9%

Q: What about the viability, T/C [17] of the same molecule?
A: 52.2%

Q: What about the viability, T/C [18] of the same molecule?
A: 11.8%

Q: And the viability, T/C [19]?
A: 108%

Q: What about the viability, T/C [20] of the same molecule?
A: 104%

Q: What about the viability, T/C [21] of the same molecule?
A: 71.6%

Q: What about the viability, T/C [22] of the same molecule?
A: 58.8%

Q: What about the viability, T/C [23] of the same molecule?
A: 35.8%

Q: And the viability, T/C [24]?
A: 9.34%

Q: And the viability, T/C [25]?
A: 78.4%

Q: And the viability, T/C [26]?
A: 72.1%

Q: What about the viability, T/C [27] of the same molecule?
A: 50.6%

Q: What about the viability, T/C [28] of the same molecule?
A: 39.7%

Q: What about the viability, T/C [29] of the same molecule?
A: 25.5%

Q: And the viability, T/C [30]?
A: 6.59%

Q: What does the source list for Nc1ncn(C2CC(O)C(CO)O2)c(=O)n1 (stereo not given) + NC1CCC(NC2CC2c2ccccc2)CC1?
A: pIC50 (second compound 0.1 µM): 7.51; pIC50 (second compound 0.316 µM): 7.52; pIC50 (second compound 1 µM): 7.55; pIC50 (second compound 3.16 µM): 7.57; pIC50 (second compound 10 µM): 7.70; viability, T/C [31]: 91.3%; viability, T/C [32]: 91.5%; viability, T/C [1]: 46.9%; viability, T/C [2]: 25.2%; viability, T/C [3]: 12.7%; viability, T/C [4]: 13.6%; viability, T/C [33]: 105%; viability, T/C [34]: 75.5%; viability, T/C [7]: 53%; viability, T/C [8]: 24.6%; viability, T/C [9]: 14.8%; viability, T/C [10]: 15.4%; viability, T/C [35]: 101%; viability, T/C [36]: 74.1%; viability, T/C [13]: 47%; viability, T/C [14]: 30.8%; viability, T/C [15]: 14.5%; viability, T/C [16]: 16.1%; viability, T/C [37]: 80.1%; viability, T/C [38]: 72.6%; viability, T/C [19]: 44.4%; viability, T/C [20]: 28.9%; viability, T/C [21]: 19.8%; viability, T/C [22]: 16.1%; viability, T/C [39]: 74.8%; viability, T/C [40]: 59%; viability, T/C [25]: 45.4%; viability, T/C [26]: 21.4%; viability, T/C [27]: 15.6%; viability, T/C [28]: 11.5%
